This note sets out measurements from patent US6455576B1, “Macrolides with anti-inflammatory activity” (Zambon Group S.p.A., priority 1999, dated 2002).

Where two headings read alike, the source gives them in different places.

The subject of one assay is superoxide anion release. Kind of assay: In vitro inhibition of FMLP-stimulated superoxide anion release from neutrophils (Lucigenin-enhanced chemiluminescence). Type of assay: cell-based, human. Particulars: neutrophils of healthy volunteers, 30 minutes pre-incubation at 37° C., FLMP stimulation, read-out: O2 release IC50. As for the experimental part:
B) Release of Superoxide Anions
Neutrophils were separated from venous blood of healthy volunteers by centrifugation on Ficoll-Hypaque, followed by sedimentation on 6% dextrane and osmotic lysis of erythrocytes. Neutrophils were then washed and resuspended in a medium made of RPMI-1640 supplemented with 5% foetal calf serum and 1.34 mmoles/l of disodium dihydrate EDTA. The cells were maintained for 24 hours at 4° C. and before the test the suspension was centrifugated and resuspended in HBSS (Hanks' balanced salt solution). The vitality and the purity of the neutrophil preparation was verified by dyeing with Trypan blue and Turk blue.
The superoxide anions were measured by using Lucigenin (bis-N-methylacridinium nitrate)-enhanced chemiluminescence technique.
Neutrophils (2×10^6 cells/ml) were pre-incubated for 30 minutes at 37° C. in 900 µl of HBSS with and without the tested compound (reading system).
The production of superoxide anions was measured with a Lumac/3M bio-counter after addition of 100 µl of a solution in HBSS of Lucigenin (2 mmoles/l) and N-formyl-L-methionyl-L-leucyl-L-phenylalanine (FLMP) as stimulating agent at the concentration of […] to the reading system. FLMP was dissolved in DMSO (1×10^−2 M) and further diluted in HBSS. The compound to be tested was dissolved in DMSO at the concentration of 10^−2 M. Lower concentrations, in DMSO, were prepared from that solution, and tested. The DMSO amount present in the reading system was lower than 1%.
The luminosity values obtained at the peak, for each tested concentration of the compound, were transformed in inhibition percentage in comparison with the reference.
The concentration able to inhibit the production of superoxide anion at 50% (IC50) was calculated from the obtained “dose-response” curve.

The next assay relates to IL-8 release. Kind of assay: In vitro inhibition of LPS-induced IL-8 release in ECV304 endothelial cells (ELISA). Type of assay: cell-based, human. The settings on record: for IL-8 release efficacy (%): highest obtainable inhibition; for IC50: 1 hour pre-incubation, supernatant after one night, concentration giving 50% of highest obtainable inhibition, read-out: IL-8 release potency IC50. The method, then: A) Release of Interleukin 8 (IL-8)
A human endothelial immortalized cell line (ECV304) was obtained from ATTC (Rockville, Md.) and grown in Medium 199, mod. Earle's salts (GIBCO, Life Technologies, Grand Island, N.Y.), supplemented with 20% Fetal Calf Serum (GIBCO), 100 U/ml of penicillin and 100 µg/ml of streptomycin (SIGMA, St. Louis, Mo.) in wet atmosphere with 5% CO2 at 37° C.
The cells were cultivated on 96 well plates up to obtain a confluent monolayer. The compounds to be evaluated were dissolved in DMSO at 10^−2M and diluted with culture medium.
The compounds were pre-incubated with the cells 1 hour before the challenge.
The release of IL-8 was induced by adding 0.66 µg/ml of lipopolysaccharide B (E. coli 055:B5, Difco, Detroit, Mich.) in a final volume of 200 µl.
After one night, the supernatant was collected for the IL-8 test.
The specific immunoreactivity for IL-8 in the culture supernatant was measured with ELISA kit (Amersham, UK).
Results were expressed as the highest obtainable inhibition (efficacy) and, whether possible, as the concentration at which 50% of such effect (TC50) is obtained.
(In general: An ELISA detects its analyte on a solid surface through an enzyme-linked reagent.)

Assay [1] deals with neutrophilia induced by LPS. The experiment in a line: In vivo inhibition of neutrophilia induced by LPS after repeated administrations (bronchoalveolar lavage). More on the design: species or system rat. The settings on record: Sprague-Dawley rats, compound i.p. twice a day for 6 days and 7th day 1 hour before and 5 hours after LPS 6 mg/kg i.p.; BALF 24 hours after LPS. As for the experimental part: In vivo Pharmacological Activity
Male Sprague-Dawley rats weighing between 200 and 300 g were used.
The rats used in the experiments were not evidently infected. The animals were maintained in standard conditions for 7 days before being sacrificed.
LPS (E. coli lipopolisaccharide) (endotoxin; 055:B5 serum-type; Sigma Chemical Co., St. Louis, Mo.) was dissolved in saline sterile solution and was administered by intraperitoneal injection (i.p.) at a dose of 6 mg/kg (1 ml/kg). Analogously the saline solution and/or the carrier (saline solution+0.5% Tween 20) were injected into the control animals.
Compound Administration (Prophylactic Treatment)
Each compound was administered by i.p. injection twice a day for 6 days, the 7th day 1 hour before and 5 hours after LPS administration. The compounds were suspended with 0.5% Tween 20 in the saline solution.
After 24 hours from the LPS injection rats were sacrificed with an overdose of nembutal (100 mg/kg i.p.). The trachea was incannulated and the lung was washed by instilling two 5 ml aliquots of PBS (phosphate buffer saline) at 37° C. and the fluid was immediately removed. The fluid was again injected and the procedure was altogether repeated three times for each aliquot.
Cell Counting and Differentiation
200 μl of BALF (bronchoalveolar lavage fluid) were diluted in 1 ml of cold water and 19 ml of Isoton. The overall number of cells was counted twice by using Contraves autolyser 800. When the total number was lower than 2000, BALFs were centrifugated at 800 rpm for 10 minutes in order to separate the cells from the supernatant. The supernatants were discharged and the cells resuspended in a small amount of PBS. For the cytological evaluation, 50 μl of the solution with the resuspended cells were centrifugated for 1 minute at 1300 rpm by using a Shandon Cytospin centrifuge. The slides were fixed in acetone and dyed with DiffQuick. The differential counts of cells were performed on each slide by counting 200 cells at random; cellular types were classified as neutrophils, eosinophils and mononuclear cells according to morphological standard criteria.

Setting [2] is: Homo sapiens, ECV-304, LPS 0.66 μg/ml.

Broadly, the IC50 is the concentration at which inhibition is half-maximal. In the case of `CCC1OC(=O)C(C)C(OC2CC(C)(OC)C(O)C(C)O2)C(C)C(OC2OC(C)C=CC2O)C(C)(O)CC(C)C(=NO)C(C)C(O)C1(C)O` (stereo not shown) [Compound 1, 3′-de(dimethylamino)-3′,4′-dehydro-erythromycin A Oxime], in the assay with superoxide anion release, the IC50 is 35.3 ± 5.4 µM. In addition, in the assay on IL-8 release (LPS 0.66 μg/ml), the “IL-8 release efficacy (%)” value is 29%.
As to “3′-de(dimethylamino)-erythromycin A (E)-9-O-[2-methoxy-ethoxy]-methyl]-oxime] [Compound 5]”, in the assay with superoxide anion release, the concentration for half-maximal inhibition (IC50) was over 100 µM. For the same compound, in the assay with IL-8 release (LPS 0.66 μg/ml), the IC50 stood at 12 µM and the “IL-8 release efficacy (%)” value is recorded as 55 ± 0.9%.
As for `CC[C@H]1OC(=O)[C@H](C)[C@@H](O[C@H]2C[C@@](C)(OC)[C@@H](O)[C@H](C)O2)[C@H](C)[C@@H](O[C@@H]2O[C@H](C)CC[C@H]2O)[C@](C)(O)C[C@@H](C)C(=NO)[C@H](C)[C@@H](O)[C@]1(C)O` [Compound 2, 3′-de(dimethylamino)-erythromycin A Oxime], in the assay with superoxide anion release, the IC50 was 11.4 ± 2.9 µM. Moreover, the “Inhibition (%)” value in assay [1] is −31%. Moreover, the “IL-8 release efficacy (%)” value with IL-8 release (LPS 0.66 μg/ml) came to 29%.
Turning to “3′-de(dimethylamino)-erythromycin A (E)-9-[O-[2-[(6-amino-hexyl)-amino]-ethyl]-oxime] [Compound 6]”, the IC50 with superoxide anion release turned out to be 9.9 ± 0.69 µM. Besides, the “Inhibition (%)” value in assay [1] was −11%. For the same compound, in the assay on IL-8 release (LPS 0.66 μg/ml), the IC50 turned out to be 7.7 ± 0.3 µM and the “IL-8 release efficacy (%)” value came to 37 ± 10%.
For `CC[C@H]1OC(=O)[C@H](C)[C@@H](O[C@H]2C[C@@](C)(OC)[C@@H](O)[C@H](C)O2)[C@H](C)[C@@H](O[C@@H]2O[C@H](C)C[C@H](N(C)C)[C@H]2O)[C@](C)(O)C[C@@H](C)/C(=N\OCOCCOC)[C@H](C)[C@@H](O)[C@]1(C)O` [roxithromycin, reference compound], the IC50 was determined as 89 ± 5 µM in the assay with superoxide anion release (Homo sapiens, Neutrophil) and 5.5 ± 1.5 µM in the assay with IL-8 release (setting [2]). The “Inhibition (%)” value in assay [1] was −50%. Besides, in the assay on IL-8 release (LPS 0.66 μg/ml), the “IL-8 release efficacy (%)” value is listed as 43 ± 6%.
`CC[C@H]1OC(=O)[C@H](C)[C@@H](O[C@H]2C[C@@](C)(OC)[C@@H](O)[C@H](C)O2)[C@H](C)[C@@H](O[C@@H]2O[C@H](C)C[C@H](N(C)C)[C@H]2O)[C@](C)(OC)C[C@@H](C)C(=O)[C@H](C)[C@@H](O)[C@]1(C)O` [clarithromycin, reference compound]: the IC50 was determined as 49.2 ± 1.9 µM in the assay on superoxide anion release (Homo sapiens, Neutrophil) and 8.9 ± 3.2 µM in the assay with IL-8 release (setting [2]). In addition, in assay [1], the “Inhibition (%)” value is −47%. In addition, in the assay on IL-8 release (LPS 0.66 μg/ml), the “IL-8 release efficacy (%)” value is reported as 48 ± 6%.
Regarding “3′-de(dimethylamino)erythromycin A (E)-9-[O-[2-[6-(benzylamino)-hexylamino]-ethyl]-oxime] [Compound 9]”, the concentration for half-maximal inhibition (IC50) with superoxide anion release was determined as 3.5 ± 0.5 µM. In assay [1], the “Inhibition (%)” value was −96%.
Turning to `CCC1OC(=O)C(C)C(OC2CC(C)(OC)C(O)C(C)O2)C(C)C(OC2OC(C)CCC2O)C(C)(O)CC(C)C(=NOCCNCCNCc2nccs2)C(C)C(O)C1(C)O` (stereo not shown) [Compound 16, 3′-de(dimethylamino)-erythromycin A (E)-9-[O-[2-[2-[(thiazol-2-ylmethyl)-amino]-ethyl-amino]-ethyl]-oxime]], the IC50 in the assay on superoxide anion release stood at 14.3 µM. The “IL-8 release efficacy (%)” value in the assay with IL-8 release (LPS 0.66 μg/ml) is 35%.
Consider `CCC1OC(=O)C(C)C(OC2CC(C)(OC)C(O)C(C)O2)C(C)C(OC2OC(C)CCC2O)C(C)(O)CC(C)C(=NOCCOCCNCc2ccccc2)C(C)C(O)C1(C)O` (stereo not shown) [Compound 11, 3′-de(dimethylamino)-erythromycin A (E)-9-[O-[2-[2-(benzylaminol)-ethoxy]-ethyl]-oxime]], for which the IC50 in the assay on superoxide anion release came to 5 µM. Besides, the “IL-8 release efficacy (%)” value in the assay with IL-8 release (LPS 0.66 μg/ml) came out at 22 ± 4%.
Turning to “3′-de(dimethylamino)-erythromycin A (E)-9-[O-[2-[6-[(thiazol-2-ylmethyl)-amino]-hexyl-amino]-ethyl]-oxime] [Compound 8]”, the IC50 in the assay with superoxide anion release turned out to be 3.5 ± 0.2 µM. Besides, the “IL-8 release efficacy (%)” value in the assay on IL-8 release (LPS 0.66 μg/ml) came to 19 ± 1%.
For the compound `CC[C@H]1OC(=O)[C@H](C)[C@@H](O[C@H]2C[C@@](C)(OC)[C@@H](O)[C@H](C)O2)[C@H](C)[C@@H](O[C@@H]2O[C@H](C)C[C@H](N(C)C)[C@H]2O)[C@](C)(O)C[C@@H](C)C(=O)[C@H](C)[C@@H](O)[C@]1(C)O` [erythromycin, reference compound], in the assay on superoxide anion release (Homo sapiens, Neutrophil), the IC50 was over 100 µM. For the same compound, in assay [1], the “Inhibition (%)” value was −46%. Moreover, the “IL-8 release efficacy (%)” value with IL-8 release (LPS 0.66 μg/ml) was found to be 27 ± 1%.
